Experimental findings from patent publication US20200378993A1, “MEDICAL USES OF APOLIPOPROTEIN A AND ACTIVATORS THEREOF” (FUNDACIÓN IMDEA ALIMENTACIÓN, priority 2017, published 2020) are described below.

In the test the test system is DLD1_ABCA1 cells. Kind of test: Cell viability and proliferation assay (XCELLigence). The format is cell-based, human. As to conditions: RVX-208 30 μm 72 hours then 15 μM; DLD1 cells overexpressing ABCA1. As to the method:
FIG. 6. A) Proliferation curve in a viability assay carried out by means of XCELLigence technology. The results for the stable cell line overexpressing ABCA1 in the absence and presence of ApoA1 are shown. The cells were treated for 72 hours before the experiment with 40 μg/ml of ApoA1 and with a concentration of 20 μg/ml during acquisition. B) Migration and invasion assays. The method followed was the same as the one described in FIG. 1. (**p-value=0.003; ****p-value<0.0001). C) ABCA1 messenger RNA level (left panel) and ABCA1 protein level (right panel) in the presence and absence of treatment with ApoA1. Results are shown both for the control cells and for those cells overexpressing the transporter.
Cell viability and proliferation assays were carried out by means of XCELLigence technology (ACEA Biosciences, Inc.) following the manufacturer's indications. Migration and invasion assays were carried out in Corning® BioCoat™ Control plates (#354578) and Corning® BioCoat™ Matrigel plates (#354480), respectively, following the manufacturer's indications. […]
The inventors were able to confirm said results based on the treatment of DLD1 cells expressing ABCA1 with RVX-208 under the conditions already described in detail in Example 3. […] The levels of caveolin-1, a protein whose increased levels have been associated with increases in cell migration and invasion, were also analyzed in this experiment.

As to `COc1cc(OC)c2c(=O)[nH]c(-c3cc(C)c(OCCO)c(C)c3)nc2c1` [RVX-208, 2-(4-(2-hydroxyethoxy)-3,5-dimethylphenyl)-5,7-dimethoxyquinazolin-4(3H)-one], the proliferative capacity result is recorded as “significant decrease in proliferative capacity”.
